Results published in patent US20020115661A1, “Method for treating chronic obstructive pulmonary disease” (priority 2000, published 2002).

Experiments:
[1] = target: T1, human ETB receptors (Homo sapiens, UniProt P24530); assay: [125I]ET-3 binding to recombinant human ETB receptors (CHO cell membranes); settings: Table 1 comparison with known endothelin antagonists; read-out: Receptor Inhibition, Human ETB
T1 construct: expressed in transfected cells; host or cells: CHO cells
T1 sequence (P24530 27-442): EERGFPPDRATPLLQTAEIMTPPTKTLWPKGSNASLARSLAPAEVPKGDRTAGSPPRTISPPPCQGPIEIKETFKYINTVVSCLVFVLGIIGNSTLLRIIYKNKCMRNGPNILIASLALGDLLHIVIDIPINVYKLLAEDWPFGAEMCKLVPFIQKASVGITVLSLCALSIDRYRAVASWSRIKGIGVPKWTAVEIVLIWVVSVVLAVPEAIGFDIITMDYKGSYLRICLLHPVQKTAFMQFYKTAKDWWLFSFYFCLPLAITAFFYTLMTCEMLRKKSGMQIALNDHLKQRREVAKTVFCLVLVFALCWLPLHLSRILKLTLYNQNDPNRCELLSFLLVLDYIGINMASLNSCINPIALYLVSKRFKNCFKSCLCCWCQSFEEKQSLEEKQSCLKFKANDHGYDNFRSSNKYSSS

[2] = target: T2, human ETA receptors (Homo sapiens, UniProt P25101); assay: [125I]ET-1 binding to recombinant human ETA receptors (Ltk- cell membranes); settings: for IC50: Table 1 comparison with known endothelin antagonists, read-out: Receptor Inhibition, Human ETA; for ETB/ETA selectivity ratio: human ETB / human ETA receptor inhibition
T2 construct: expressed in transfected cells; host or cells: Ltk- cells (mouse fibroblast, thymidine kinase deficient)
T2 sequence (P25101 21-427): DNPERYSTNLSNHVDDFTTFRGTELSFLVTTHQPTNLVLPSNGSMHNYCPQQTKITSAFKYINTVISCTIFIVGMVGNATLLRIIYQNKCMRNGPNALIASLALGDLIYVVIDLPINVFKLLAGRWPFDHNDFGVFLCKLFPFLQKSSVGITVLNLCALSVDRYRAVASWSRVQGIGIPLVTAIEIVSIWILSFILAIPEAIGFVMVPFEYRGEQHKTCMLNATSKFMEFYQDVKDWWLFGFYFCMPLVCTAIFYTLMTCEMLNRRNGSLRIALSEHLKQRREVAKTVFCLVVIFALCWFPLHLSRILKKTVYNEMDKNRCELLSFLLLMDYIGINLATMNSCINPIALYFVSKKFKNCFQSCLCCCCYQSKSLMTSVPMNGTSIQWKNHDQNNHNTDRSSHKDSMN

[3] = clinical; settings: human, plasma, oral, 2 mg

For `COc1cc(OC)nc(O[C@H](C(=O)O)C(OC)(c2ccccc2)c2ccccc2)n1` [Darusentan], which IC50 [1] is on record?
Its IC50 is 184 nM.

And the IC50 [2]?
The IC50 was 1.4 nM.

What about the ETB/ETA selectivity ratio [2] of the same molecule?
Its ETB/ETA selectivity ratio is 131.

With `Cc1ncc2n1-c1ccc(Cl)cc1C(c1ccccc1F)=NC2` [midazolam] as the molecule, how does the AUC(0-t) [3] read?
Its AUC(0-t) is 15.2 ng·h/mL.

What about the Cmax [3] of the same molecule?
Its Cmax is 7.65 ng/mL.

Which results are given for `CCCOc1ccc2c(c1)[C@@H](c1ccc(OC)cc1OCCO)[C@H](C(=O)O)[C@H]2c1ccc2c(c1)OCO2` [Enrasentan]?
IC50 [1]: 111 nM; IC50 [2]: 0.1 nM; ETB/ETA selectivity ratio [2]: 1110
